According to ChEMBL document CHEMBL5325407, “Structure-based development of potent Plasmodium falciparum M1 and M17 aminopeptidase selective and dual inhibitors via S1'-region optimisation” (Eur J Med Chem, 2023):
Converted amounts (≈) assume the structure as drawn. The source made the active and inactive calls. No cut-off for these calls is given here.

Experiments:
[1] = (§1) Inhibition of C-terminal 6-His tagged Plasmodium falciparum M1 aminopeptidase (195 to 1085 residues) expressed in Escherichia coli BL21(DE3) cells using H-Leu-NHMec as substrate assessed as apparent inhibition constant preincubated for 10 mins followed by substrate addition by spectrofluorimetric analysis; settings: read-out: Ki(app)
[2] = as §1, with “M17” for “M1”, “(85” for “(195”, “605” for “1085”, “BL21 (DE3)” for “BL21(DE3)”; settings: read-out: Ki(app)
[3] = tested on: Plasmodium falciparum; test: Antiplasmodial activity against drug-sensitive Plasmodium falciparum 3D7 infected in Red blood cell assessed as growth inhibition measured after 72 hrs by LDH assay; type: functional, organism-based; settings: 3D7, Erythrocyte
[4] = target: Histone deacetylase 1 (Homo sapiens) (UniProt Q13547); test: Inhibition of HDAC1 (unknown origin)
Histone deacetylase 1 (Homo sapiens), sequence (Q13547 whole entry): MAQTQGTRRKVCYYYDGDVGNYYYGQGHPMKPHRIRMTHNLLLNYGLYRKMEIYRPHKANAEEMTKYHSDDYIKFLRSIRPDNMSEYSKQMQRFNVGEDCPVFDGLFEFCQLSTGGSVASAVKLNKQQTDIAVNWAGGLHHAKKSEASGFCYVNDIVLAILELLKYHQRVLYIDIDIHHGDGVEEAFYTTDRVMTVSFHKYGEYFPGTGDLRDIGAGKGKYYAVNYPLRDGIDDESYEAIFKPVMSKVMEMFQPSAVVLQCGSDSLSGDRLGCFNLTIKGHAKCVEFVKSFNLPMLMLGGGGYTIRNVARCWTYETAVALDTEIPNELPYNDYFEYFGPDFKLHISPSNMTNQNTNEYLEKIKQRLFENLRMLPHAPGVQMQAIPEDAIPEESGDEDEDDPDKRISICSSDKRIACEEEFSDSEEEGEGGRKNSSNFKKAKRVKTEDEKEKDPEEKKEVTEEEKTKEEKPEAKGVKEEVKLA

[5] = target: Histone deacetylase 2 (Homo sapiens) (UniProt Q92769); test: Inhibition of HDAC2 (unknown origin)
Histone deacetylase 2 (Homo sapiens), sequence (Q92769 whole entry): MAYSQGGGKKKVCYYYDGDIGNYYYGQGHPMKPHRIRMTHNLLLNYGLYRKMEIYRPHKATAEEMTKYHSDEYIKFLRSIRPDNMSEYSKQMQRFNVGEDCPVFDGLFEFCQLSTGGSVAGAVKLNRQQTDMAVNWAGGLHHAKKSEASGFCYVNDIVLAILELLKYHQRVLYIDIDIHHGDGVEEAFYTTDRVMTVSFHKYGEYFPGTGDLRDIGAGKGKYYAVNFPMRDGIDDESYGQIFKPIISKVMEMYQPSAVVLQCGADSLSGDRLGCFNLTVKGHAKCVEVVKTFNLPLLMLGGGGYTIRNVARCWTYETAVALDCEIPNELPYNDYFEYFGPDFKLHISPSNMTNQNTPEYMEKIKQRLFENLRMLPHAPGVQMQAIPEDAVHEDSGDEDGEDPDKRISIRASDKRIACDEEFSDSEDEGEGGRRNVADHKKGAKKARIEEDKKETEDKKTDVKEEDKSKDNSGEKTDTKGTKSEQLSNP

[6] = target: Histone deacetylase 5 (Homo sapiens) (UniProt Q9UQL6); test: Inhibition of HDAC5 (unknown origin)
Histone deacetylase 5 (Homo sapiens), sequence (Q9UQL6 whole entry): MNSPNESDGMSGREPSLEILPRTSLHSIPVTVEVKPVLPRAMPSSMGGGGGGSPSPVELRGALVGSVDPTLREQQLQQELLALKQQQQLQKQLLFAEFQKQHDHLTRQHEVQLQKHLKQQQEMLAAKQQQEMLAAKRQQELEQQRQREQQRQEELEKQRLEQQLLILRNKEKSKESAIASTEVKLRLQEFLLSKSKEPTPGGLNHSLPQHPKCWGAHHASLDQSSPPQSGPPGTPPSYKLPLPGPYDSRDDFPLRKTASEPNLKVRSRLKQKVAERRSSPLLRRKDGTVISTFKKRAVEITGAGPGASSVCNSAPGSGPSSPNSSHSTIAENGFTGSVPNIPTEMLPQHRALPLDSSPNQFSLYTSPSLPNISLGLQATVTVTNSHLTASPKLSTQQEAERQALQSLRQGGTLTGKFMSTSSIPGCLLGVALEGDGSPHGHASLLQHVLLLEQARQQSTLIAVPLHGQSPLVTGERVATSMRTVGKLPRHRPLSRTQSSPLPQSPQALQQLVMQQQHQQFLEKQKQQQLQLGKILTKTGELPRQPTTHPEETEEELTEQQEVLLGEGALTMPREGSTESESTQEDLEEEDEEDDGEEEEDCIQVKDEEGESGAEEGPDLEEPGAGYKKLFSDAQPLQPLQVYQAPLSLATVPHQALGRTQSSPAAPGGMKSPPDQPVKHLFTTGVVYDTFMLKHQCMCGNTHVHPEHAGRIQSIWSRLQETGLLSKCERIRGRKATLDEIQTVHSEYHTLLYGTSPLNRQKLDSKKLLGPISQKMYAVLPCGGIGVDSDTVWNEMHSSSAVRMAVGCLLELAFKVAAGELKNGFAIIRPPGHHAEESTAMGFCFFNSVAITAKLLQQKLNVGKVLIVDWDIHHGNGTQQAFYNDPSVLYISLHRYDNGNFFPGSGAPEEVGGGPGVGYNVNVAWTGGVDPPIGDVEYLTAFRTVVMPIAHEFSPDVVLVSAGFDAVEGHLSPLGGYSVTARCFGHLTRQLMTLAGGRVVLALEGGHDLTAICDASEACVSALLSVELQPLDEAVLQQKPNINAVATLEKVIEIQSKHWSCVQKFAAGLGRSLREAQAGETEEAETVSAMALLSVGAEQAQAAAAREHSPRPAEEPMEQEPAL

[7] = target: T1, Histone deacetylase 7 (Homo sapiens) (UniProt Q8WUI4); test: Inhibition of HDAC7 (unknown origin)
T1 sequence (whole entry): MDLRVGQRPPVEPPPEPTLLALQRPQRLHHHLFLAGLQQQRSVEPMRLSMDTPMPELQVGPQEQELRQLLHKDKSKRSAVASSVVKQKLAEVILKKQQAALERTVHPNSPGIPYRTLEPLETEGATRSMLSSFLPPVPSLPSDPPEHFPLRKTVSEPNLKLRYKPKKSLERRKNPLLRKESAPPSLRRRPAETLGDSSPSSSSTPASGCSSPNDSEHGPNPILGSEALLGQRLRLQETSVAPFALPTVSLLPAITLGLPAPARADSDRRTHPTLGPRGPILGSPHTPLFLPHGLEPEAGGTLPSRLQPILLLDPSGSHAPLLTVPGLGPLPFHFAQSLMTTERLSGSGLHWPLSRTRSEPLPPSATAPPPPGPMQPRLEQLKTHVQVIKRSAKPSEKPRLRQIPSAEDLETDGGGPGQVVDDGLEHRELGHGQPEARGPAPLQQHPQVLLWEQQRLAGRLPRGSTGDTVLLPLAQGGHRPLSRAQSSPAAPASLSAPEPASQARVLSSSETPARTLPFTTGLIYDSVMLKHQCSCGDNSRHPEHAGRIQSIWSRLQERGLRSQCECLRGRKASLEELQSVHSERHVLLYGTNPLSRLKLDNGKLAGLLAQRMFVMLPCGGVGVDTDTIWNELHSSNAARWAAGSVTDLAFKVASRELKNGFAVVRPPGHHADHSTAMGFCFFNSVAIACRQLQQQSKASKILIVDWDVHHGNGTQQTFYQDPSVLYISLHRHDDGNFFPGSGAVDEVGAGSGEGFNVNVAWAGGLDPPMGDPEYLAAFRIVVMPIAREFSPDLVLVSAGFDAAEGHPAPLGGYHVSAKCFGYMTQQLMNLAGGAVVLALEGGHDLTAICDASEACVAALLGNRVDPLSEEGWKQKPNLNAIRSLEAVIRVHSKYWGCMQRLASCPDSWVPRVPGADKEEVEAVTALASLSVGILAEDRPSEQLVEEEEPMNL

[8] = target: T2, Histone deacetylase 8 (Homo sapiens) (UniProt Q9BY41); test: Inhibition of HDAC8 (unknown origin)
T2 sequence (whole entry): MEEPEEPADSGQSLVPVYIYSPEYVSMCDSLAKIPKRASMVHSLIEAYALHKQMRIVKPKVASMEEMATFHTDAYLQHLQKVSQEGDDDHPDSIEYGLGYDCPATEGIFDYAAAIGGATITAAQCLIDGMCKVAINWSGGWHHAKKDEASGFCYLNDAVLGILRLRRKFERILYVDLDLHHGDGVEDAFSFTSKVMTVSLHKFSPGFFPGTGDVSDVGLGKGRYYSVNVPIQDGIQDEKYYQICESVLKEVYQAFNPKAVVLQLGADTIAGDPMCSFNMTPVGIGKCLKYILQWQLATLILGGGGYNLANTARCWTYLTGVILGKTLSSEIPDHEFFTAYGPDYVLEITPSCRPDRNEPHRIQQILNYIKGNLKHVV

[9] = target: Histone deacetylase 9 (Homo sapiens) (UniProt Q9UKV0); test: Inhibition of HDAC9 (unknown origin)
Histone deacetylase 9 (Homo sapiens), sequence (Q9UKV0 whole entry): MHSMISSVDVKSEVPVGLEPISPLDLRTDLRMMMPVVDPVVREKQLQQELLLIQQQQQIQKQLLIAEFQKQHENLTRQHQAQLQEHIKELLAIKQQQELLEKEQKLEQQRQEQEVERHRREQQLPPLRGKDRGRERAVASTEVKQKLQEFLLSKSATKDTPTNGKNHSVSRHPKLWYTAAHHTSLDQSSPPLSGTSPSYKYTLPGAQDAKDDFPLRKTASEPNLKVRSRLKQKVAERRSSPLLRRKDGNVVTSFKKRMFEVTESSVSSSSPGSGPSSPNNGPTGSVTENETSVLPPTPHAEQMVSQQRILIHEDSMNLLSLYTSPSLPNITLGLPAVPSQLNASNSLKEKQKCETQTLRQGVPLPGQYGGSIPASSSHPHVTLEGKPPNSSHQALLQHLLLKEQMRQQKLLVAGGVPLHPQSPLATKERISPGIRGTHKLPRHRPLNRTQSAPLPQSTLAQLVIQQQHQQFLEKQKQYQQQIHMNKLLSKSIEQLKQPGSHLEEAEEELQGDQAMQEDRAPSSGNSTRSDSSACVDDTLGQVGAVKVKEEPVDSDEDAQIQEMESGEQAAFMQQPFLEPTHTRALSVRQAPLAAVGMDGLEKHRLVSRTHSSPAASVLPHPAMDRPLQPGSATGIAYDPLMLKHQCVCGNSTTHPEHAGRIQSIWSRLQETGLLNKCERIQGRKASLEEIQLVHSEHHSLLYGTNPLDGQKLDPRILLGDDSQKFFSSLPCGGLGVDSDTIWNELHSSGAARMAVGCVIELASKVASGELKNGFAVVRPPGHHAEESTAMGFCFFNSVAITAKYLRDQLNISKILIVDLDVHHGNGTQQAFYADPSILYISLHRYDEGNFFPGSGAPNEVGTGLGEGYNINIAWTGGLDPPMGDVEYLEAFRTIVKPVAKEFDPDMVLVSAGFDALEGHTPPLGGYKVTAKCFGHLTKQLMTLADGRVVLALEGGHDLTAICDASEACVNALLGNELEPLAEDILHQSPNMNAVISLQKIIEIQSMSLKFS

[10] = target: T3, Polyamine deacetylase HDAC10 (Homo sapiens) (UniProt Q969S8); test: Inhibition of HDAC10 (unknown origin)
T3 sequence (whole entry): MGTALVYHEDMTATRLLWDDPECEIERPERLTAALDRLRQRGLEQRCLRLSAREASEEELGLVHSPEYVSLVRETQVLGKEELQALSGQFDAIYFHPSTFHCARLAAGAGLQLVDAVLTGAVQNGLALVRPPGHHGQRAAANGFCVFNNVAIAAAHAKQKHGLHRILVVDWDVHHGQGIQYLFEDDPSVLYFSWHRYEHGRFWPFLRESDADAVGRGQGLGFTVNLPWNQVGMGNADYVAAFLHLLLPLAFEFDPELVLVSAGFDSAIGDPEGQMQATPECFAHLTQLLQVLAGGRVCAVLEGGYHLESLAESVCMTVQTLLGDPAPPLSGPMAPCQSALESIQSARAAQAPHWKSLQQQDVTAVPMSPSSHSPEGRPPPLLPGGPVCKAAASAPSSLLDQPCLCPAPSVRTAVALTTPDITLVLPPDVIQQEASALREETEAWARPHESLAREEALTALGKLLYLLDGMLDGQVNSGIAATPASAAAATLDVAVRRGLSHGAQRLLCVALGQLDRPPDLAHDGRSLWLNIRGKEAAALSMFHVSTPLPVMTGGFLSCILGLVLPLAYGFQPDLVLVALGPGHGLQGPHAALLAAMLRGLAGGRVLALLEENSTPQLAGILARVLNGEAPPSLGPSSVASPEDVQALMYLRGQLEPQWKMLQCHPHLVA

[11] = target: Endoplasmic reticulum aminopeptidase 1 (Homo sapiens) (UniProt Q9NZ08); test: Inhibition of ERAP1 (unknown origin)
Endoplasmic reticulum aminopeptidase 1 (Homo sapiens), sequence (Q9NZ08 whole entry): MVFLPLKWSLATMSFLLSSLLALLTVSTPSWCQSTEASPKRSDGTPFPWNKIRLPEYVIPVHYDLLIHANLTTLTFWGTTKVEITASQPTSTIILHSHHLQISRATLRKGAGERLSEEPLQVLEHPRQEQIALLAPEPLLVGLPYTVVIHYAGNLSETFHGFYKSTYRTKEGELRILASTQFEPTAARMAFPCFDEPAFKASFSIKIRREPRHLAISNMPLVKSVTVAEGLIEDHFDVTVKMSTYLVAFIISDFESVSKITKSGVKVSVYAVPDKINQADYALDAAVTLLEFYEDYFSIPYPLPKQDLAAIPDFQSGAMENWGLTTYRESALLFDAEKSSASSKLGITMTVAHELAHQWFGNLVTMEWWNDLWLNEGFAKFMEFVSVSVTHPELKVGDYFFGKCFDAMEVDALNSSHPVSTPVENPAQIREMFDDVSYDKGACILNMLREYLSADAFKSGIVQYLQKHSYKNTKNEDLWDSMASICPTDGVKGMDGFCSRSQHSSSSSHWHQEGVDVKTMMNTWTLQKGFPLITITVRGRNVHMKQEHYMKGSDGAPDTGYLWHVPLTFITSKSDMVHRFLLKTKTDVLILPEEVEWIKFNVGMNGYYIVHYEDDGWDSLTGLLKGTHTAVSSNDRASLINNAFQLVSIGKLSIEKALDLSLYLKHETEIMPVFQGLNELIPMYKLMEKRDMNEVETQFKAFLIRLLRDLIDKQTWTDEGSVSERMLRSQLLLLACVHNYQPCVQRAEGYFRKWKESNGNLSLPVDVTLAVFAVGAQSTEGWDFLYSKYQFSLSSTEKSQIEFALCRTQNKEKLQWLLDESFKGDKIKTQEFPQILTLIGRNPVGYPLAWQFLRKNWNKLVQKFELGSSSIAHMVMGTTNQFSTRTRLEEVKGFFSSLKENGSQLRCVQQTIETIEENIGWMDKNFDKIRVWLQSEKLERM

[12] = target: Endoplasmic reticulum aminopeptidase 2 (Homo sapiens) (UniProt Q6P179); test: Inhibition of ERAP2 (unknown origin)
[13] = target: Neutrophil collagenase (Homo sapiens) (UniProt P22894); test: Inhibition of MMP8 (unknown origin) at 10 uM relative to control
Neutrophil collagenase (Homo sapiens), sequence (P22894 101-467 limits assumed): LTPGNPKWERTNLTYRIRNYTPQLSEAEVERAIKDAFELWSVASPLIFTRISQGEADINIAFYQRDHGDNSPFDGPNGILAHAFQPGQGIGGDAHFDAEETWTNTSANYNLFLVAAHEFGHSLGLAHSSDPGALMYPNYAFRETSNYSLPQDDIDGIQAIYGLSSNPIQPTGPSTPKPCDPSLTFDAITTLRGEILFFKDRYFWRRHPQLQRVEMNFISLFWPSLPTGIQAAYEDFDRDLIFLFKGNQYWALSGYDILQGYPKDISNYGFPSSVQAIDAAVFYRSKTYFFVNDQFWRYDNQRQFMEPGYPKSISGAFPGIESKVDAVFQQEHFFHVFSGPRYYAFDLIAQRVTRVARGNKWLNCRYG

[14] = target: Matrix metalloproteinase-9 (Homo sapiens) (UniProt P14780); test: Inhibition of MMP9 (unknown origin) at 10 uM relative to control
[15] = target: Collagenase 3 (Homo sapiens) (UniProt P45452); test: Inhibition of MMP13 (unknown origin) at 10 uM relative to control
[16] = target: Matrix metalloproteinase-15 (Homo sapiens) (UniProt P51511); test: Inhibition of MMP15 (unknown origin) at 10 uM relative to control
Matrix metalloproteinase-15 (Homo sapiens), sequence (P51511 132-669 limits assumed): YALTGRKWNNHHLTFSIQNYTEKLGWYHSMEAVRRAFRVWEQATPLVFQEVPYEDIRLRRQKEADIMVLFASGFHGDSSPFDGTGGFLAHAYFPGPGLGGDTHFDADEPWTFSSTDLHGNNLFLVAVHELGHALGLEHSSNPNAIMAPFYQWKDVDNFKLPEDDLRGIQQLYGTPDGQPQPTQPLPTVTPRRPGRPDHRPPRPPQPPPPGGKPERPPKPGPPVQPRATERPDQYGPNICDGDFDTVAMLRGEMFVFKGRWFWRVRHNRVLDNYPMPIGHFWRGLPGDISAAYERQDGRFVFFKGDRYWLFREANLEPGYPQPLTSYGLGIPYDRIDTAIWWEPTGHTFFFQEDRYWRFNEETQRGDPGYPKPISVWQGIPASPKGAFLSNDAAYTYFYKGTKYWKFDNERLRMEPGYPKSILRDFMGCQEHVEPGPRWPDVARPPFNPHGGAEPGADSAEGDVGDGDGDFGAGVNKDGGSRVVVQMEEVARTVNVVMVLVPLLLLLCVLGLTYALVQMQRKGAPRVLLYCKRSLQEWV

[17] = target: Matrix metalloproteinase-24 (Homo sapiens) (UniProt Q9Y5R2); test: Inhibition of MMP24 (unknown origin) at 10 uM relative to control
[18] = Kinetic solubility of the compound in 0.01 M HCL at pH 2.0 measured after 30 mins by nephelometric analysis; type: physicochemical; settings: read-out: Kinetic_solubility
[19] = Kinetic solubility of the compound in phosphate buffer at pH 6.5 measured after 30 mins by nephelometric analysis; type: physicochemical; settings: read-out: Kinetic_solubility
[20] = Metabolic stability in human liver microsomes assessed as half life measured for 60 mins in presence of NADPH; type: ADME, Microsome
[21] = Metabolic stability in mouse liver microsomes assessed as half life measured for 60 mins in presence of NADPH; type: ADME, Microsome
[22] = Metabolic stability in human liver microsomes assessed as intrinsic clearance measured per mg protein for 60 mins in presence of NADPH; type: ADME, Microsome; settings: read-out: CLH
[23] = Metabolic stability in mouse liver microsomes assessed as intrinsic clearance measured per mg protein for 60 mins in presence of NADPH; type: ADME, Microsome; settings: read-out: CLH
[24] = tested on: HEK293; test: Cytotoxicity against HEK293 cells assessed as inhibition of cell growth at 40 uM; type: toxicity, cell-based; settings: human, hek293, 40 µM

inhibition [4]: inactive | inhibition [5]: inactive | inhibition [6]: inactive | inhibition [7]: inactive | inhibition [8]: inactive | inhibition [9]: inactive | inhibition [10]: inactive | inhibition [11]: inactive | inhibition [12]: inactive | inhibition [13]: > 50% | inhibition [14]: > 50% | inhibition [15]: > 50% | inhibition [16]: > 50% | inhibition [17]: > 50% | solubility kinetic at 0.5 h [18]: 3.1 µg/mL (≈ 7.22 µM) | solubility kinetic at 0.5 h [19]: 1.6 µg/mL (≈ 3.73 µM) | half-life [20]: 1.77 h | half-life [21]: 1.75 h | microsomal CLint [22]: 16 µL/min/mg | microsomal CLint [23]: 17 µL/min/mg
Compound: O=C(CNc1ccccc1)NC(C(=O)NO)c1ccc(-c2cc(F)c(F)c(F)c2)cc1 (centres undefined)
Ki [1]: 66 nM | Ki [2]: 57 nM | EC50 [3]: 170 nM | Activity [24]: Non-Toxic
